Reference: patent publication US20260337212A1, “IP4-4,6 SUBSTITUTED DERIVATIVE COMPOUNDS FOR USE IN THE TREATMENT, INHIBITION OF PROGRESSION, AND PREVENTION OF ECTOPIC CALCIFICATION” (SANIFIT THERAPEUTICS, S.A., priority 2022, published 2026)
Structures can show the parent of a compound that is named as a salt.

Tests used:
[1] = In vitro inhibition of calcium phosphate crystallization in human plasma (spectrophotometric); format: biochemical; details: 0-100 μM, 1.5 mM phosphate, 12.5 mM calcium, pH 7.4, 30 min, rt, read-out: Relative Potency (EC50, inhibition of calcium phosphate crystallization)
Experimental: The in vitro efficacy of the IP4-4,6 substituted derivatives (e.g., Compounds 1 to 53) of the invention on the inhibition of calcium phosphate crystallization in human plasma samples was evaluated according to a spectrophotometric assay previously described in the art (Ferrer M, et al., Sci Rep 2017; 7:6858, doi:10.1038/s41598-017-07203-x).
A 96-well plate was employed. Plasma was spiked (1 volume of the IP4-4,6 substituted derivatives of the invention per 19 volumes of plasma) with increasing concentrations of the derivatives in the range of 0-100 μM. Plasma was then centrifuged at 10,000 g at rt and subsequently mixed with a mixture of 5 mM hydrogen phosphate and 41.67 mM calcium to attain final concentrations of 1.5 mM phosphate and 12.5 mM calcium, respectively. All reagent solutions were filtered, and pH adjusted to 7.4.
Crystallization of calcium phosphate was monitored spectrophotometrically for 30 min at rt by measuring the increments in absorbance at 550 nm using the Biotek Powerwave XS Microplate spectrophotometer (BioTek Instruments, Inc., Winooski, VT, US). The plate was incubated at rt in an orbital shaker and absorbance measured every 3 min.
Plasma crystallization was assessed based on slope measurement in the linear range between 6 and 24 min from plots of increase in absorbance versus logarithm of time. The efficacy of different myo-inositol phosphates derivatives in preventing in vitro formation of calcium phosphate crystals was assessed in human plasma samples using the slopes obtained between 6- and 24-min. Inhibition of crystallization was measured by comparing the slopes of the control sample (blank plasma) with those of samples containing the inhibitor as shown below: […]

[2] = tested on: interstitial cells from aortic human valves (VIC); experiment: Calcification of interstitial cells from calcified human aortic valves (Alizarin Red); format: cell-based; details: 1, 3, 10, 30, 100 μM; 3 weeks osteodifferentiation media; FIG. 15
Experimental: Calcification was measured by Alizarin Red staining and quantified spectrophotometrically as relative calcification. Values are shown as dot plots with mean. A one-way ANOVA for parametric distributions (IP6) with DMS post-test statistical analysis was performed. For not normally distributed results (Compound 1, Compound 3, and Compound 6), a nonparametric one-way ANOVA (Kruskal-Wallis test) with Dunn's post-test was applied, p<0.05 was considered statistically significant.
The dose-response efficacy of IP4-4,6 derivatives in the treatment of calcified aortic human valves was analyzed using an in vitro model (Zabirnyk A, et al., Vasc Pharmacol 2019; 122-123, 106583, doi:10.1016/j.vph.2019.106583). The model evaluated the effects of IP6, Compound 1, Compound 3, and Compound 6 on the calcification of interstitial cells from aortic human valves (VIC).
Human calcified aortic valve leaflets were obtained during aortic valve replacement and were harvested. After the removal of the valve endothelial cells, VIC were isolated. The leaflets were placed in 30 mL of basic growth medium (DMEM), supplemented with 10% fetal bovine serum (FBS) and 50 μg/mL gentamycin with the addition of 1 mg/mL collagenase II. The cells were incubated overnight at 37° C. with 5% CO2. Next day, the digested tissue was homogenized by pipetting with a serological pipet and centrifuged at 300 g for 5 min and the supernatant carefully removed by aspiration.
The pellet was washed in 10 mL of fresh DMEM and centrifuged as described previously. The supernatant was removed by aspiration, the cell pellet was resuspended in basic growth media and seeded in […]. VIC were cultured at 37° C. and 5% CO2 with growth media changed twice a week until they reached ~90% confluency. Cells were passaged at ratio of 1:2, propagated and frozen. […]
Alizarin Red staining was performed to assess calcification. […] To quantify calcium accumulation, Alizarin Red staining was extracted and measured spectrophotometrically. […]

[3] = Rat calcinosis cutis/calciphylaxis model (vitamin D3 and FeCl3): skin plaque calcification; format: in vivo, Sprague Dawley rat; details: 60 mg/kg s.c. daily D1-D8; HC (vitamin D3 50,000 IU/kg), FeCl3 0.5 mg/kg
Experimental: The dose-response efficacy of IP4-4,6 derivatives in the prevention and treatment of calcinosis cutis and calciphylaxis (CUA) induced by vitamin D3 and FeCl3 in a rat model was used. The model evaluated the effects of Compound 27 and IP6 on the formation of calcified skin plaques in rats for a duration of 8 days. Animals were sensitized at low concentration (LC, 35,000 IU/kg) and high concentration (HC, 50,000 IU/kg) doses of vitamin D3. A FeCl3 solution (0.5 mg/kg) was used as challenger to induce the formation of skin plaques. All animals were weighed every day before treatment.
Eighty-six male Sprague Dawley (SD) rats (Envigo Corp., Huntingdon, GB) weighing approximately 250-300 g were used. The animals were fed with a standard LASQCdiet® Rod14-H diet (LASvendi, Soest, DE). The animals were divided in 8 groups, 6 to 12 animals per group, as follows:
The following solutions were prepared: (a) 17,500 IU/mL (LC) and 25,000 IU/mL (HC) vitamin D3 (cholecalciferol, Duphafral D3 1000; Zoetis Inc., Parsippany, NJ, US), (b) 0.3 mg/mL FeCl3 (FeCl3·6H2O, 99%, Scharlab S. L., Barcelona, E S), (c) 30 mg/mL IP6 (660 g/mol phytic acid, pH 6.5-7.7), and (d) 15, 30, and 50 mg/mL Compound 27 (754.45 g/mol free acid, pH 6.5-7.7). All solutions were prepared in a 0.9% (w/v) physiological saline NaCl medium. An application volume of 2 mL/kg was employed.
Group 1—Control (sham), 6 animals. Animals in group 1 were administered subcutaneously physiological saline (0.9% (w/v) NaCl solution daily from D1 to D3 in the interscapular space, and with one saline 0.9% injection at each of the two ventral sites in the thorax on D4. Animals in group 1 were not administered Vit D or FeCl3 solutions.
(§1) Group 2—Physiological saline solution low concentration (Vehicle LC): Vit D 35,000 IU/kg, 0.5 mg/kg FeCl3 solution, 10 animals. Vit D at dose 35,000 IU/kg was administered subcutaneously x 3 consecutive days (D1, D2, D3), and one 0.5 mg/kg FeCl3 injection at each of the two ventral sites in the thorax on D4. This group received a daily saline 0.9% s.c. treatment (D1 to D8).
(§2) Group 3—Compound 27 60 mg/kg LC: Vit D 35,000 IU/kg, 0.5 mg/kg FeCl3, 10 animals. Vit D at dose 35,000 IU/kg was administered subcutaneously x 3 consecutive days (D1, D2, D3), and one 0.5 mg/kg FeCl3 injection at each of the two ventral sites in the thorax on D4. This group received a daily Compound 27 s.c. treatment at 60 mg/kg dose (D1 to D8).
as §1, with “4—Physiological” for “2—Physiological”, “high” for “low”, “HC):” for “LC):”, “50,000” for “35,000”, “FeCl3, 12” for “FeCl3 solution, 10”
as §2, with “5—IP6” for “3—Compound 27”, “HC,” for “LC:”, “50,000” for “35,000”, “12” for “10”, “IP6” for “Compound 27”
as §2, with “6—Compound” for “3—Compound”, “30” for “60”, “HC,” for “LC:”, “50,000” for “35,000”, “12” for “10”
as §2, with “7—Compound” for “3—Compound”, “[…],” for “LC:”, “50,000” for “35,000”, “12” for “10”
Group 8—Compound 27 100 mg/kg HC, Vit D 50,000 IU/kg, 0.5 mg/kg FeCl3, 12 animals. […]

Molecule | EC50 [1] [µM] | Inhibition of the calcification of VIC [2] | Skin plaque % inhibition of calcification [3] [%]
O=P(O)(O)O[C@H]1[C@H](OP(=O)(O)O)[C@@H](OP(=O)(O)O)[C@H](OP(=O)(O)O)[C@@H](OP(=O)(O)O)[C@H]1OP(=O)(O)O [IP6, phytic acid, reference compound] | – | – | 58.8 ± 14.4
4,6-O-di(tetradecyl)-myo-inositol-1,2,3,5-tetrakis(phosphate) octasodium salt [Compound 3] | ≤ 5 | effective in inhibiting the calcification of VIC in vitro in a dose-response manner | –
O=P(O)(O)OC1C(OCCCCCn2cccn2)C(OP(=O)(O)O)C(OP(=O)(O)O)C(OP(=O)(O)O)C1OCCCCCn1cccn1 (stereo not drawn) [Compound 16, 4,6-O-bis(5-(1H-pyrazol-1-yl)pentyl)-myo-inositol-1,2,3,5-tetrakis(phosphate) octasodium salt] | ≤ 5 | – | –
CCCNC(=O)NCCCCCOC1C(OP(=O)(O)O)C(OCCCCCNC(=O)NCCC)C(OP(=O)(O)O)C(OP(=O)(O)O)C1OP(=O)(O)O (stereo not drawn) [Compound 30, 4,6-O-bis(5-(3-propylureido)pentyl)-myo-inositol-1,2,3,5-tetrakis(phosphate) octasodium salt] | ≤ 5 | – | –
4,6-O-bis(5-methoxypentyl)-myo-inositol-1,2,3,5-tetrakis(phosphate) octasodium salt [Compound 9] | ≤ 5 | – | –

Continued, in another order:

EC50 [1] [µM] | Molecule | Inhibition of the calcification of VIC [2] | Skin plaque % inhibition of calcification [3] [%]
≤ 5 | 4,6-O-dipentyl-myo-inositol-1,2,3,5-tetrakis(phosphate) octasodium salt [Compound 1] | effective in inhibiting the calcification of VIC in vitro in a dose-response manner | –
≤ 5 | O=P([O-])([O-])O[C@@H]1[C@@H](OCCCCCO)[C@H](OP(=O)([O-])[O-])[C@H](OP(=O)([O-])[O-])[C@H](OP(=O)([O-])[O-])[C@H]1OCCCCCO.[Na+].[Na+].[Na+].[Na+].[Na+].[Na+].[Na+].[Na+] [Compound 6, 4,6-O-bis(5-hydroxypentyl)-myo-inositol-1,2,3,5-tetrakis(phosphate) octasodium salt] | effective in inhibiting the calcification of VIC in vitro in a dose-response manner | –
5 to 10 | 4,6-O-bis(3-(4-(methoxymethyl)-1H-1,2,3-triazol-1-yl)propyl)-myo-inositol-1,2,3,5-tetrakis(phosphate) octasodium salt [Compound 36] | – | –
≤ 5 | C#CCOC1C(OP(=O)(O)O)C(OCC#C)C(OP(=O)(O)O)C(OP(=O)(O)O)C1OP(=O)(O)O (stereo not drawn) [Compound 53, 4,6-O-Dipropargyl-myo-inositol-1,2,3,5-tetrakis(phosphate) octasodium salt] | – | –
